Experimental findings from ChEMBL document CHEMBL1201862, “PubChem BioAssay data set” (2004) are described below.

For test [1], the target named is T1, Polyadenylate-binding protein 1 (Homo sapiens, UniProt P11940). The test is described as follows: PABP1 MLLE–PAM2 interaction inhibitors, dose response, miRNA deadenylation inhibitor project, biochemical, fluorescence polarization, Cy5-PAM2 peptide, secondary (AID 602260). In kind it is functional. To be noted: read-out: IC50_Mean. (In general: Fluorescence polarisation rises when a labelled molecule tumbles more slowly, as on binding a larger partner.)

The target of test [2] is T1, Polyadenylate-binding protein 1. The test is described as follows: PABP1 MLLE–PAM2 binding inhibitor potency, dose response, biochemical, fluorescence polarization, FITC-PAM2 peptide (AID 602259). It is filed as functional. To be noted: read-out: IC50_Mean.
In test [3] the target is T2, Heat shock factor protein 1 (Mus musculus, UniProt P38532).
T2 sequence (P38532 whole entry): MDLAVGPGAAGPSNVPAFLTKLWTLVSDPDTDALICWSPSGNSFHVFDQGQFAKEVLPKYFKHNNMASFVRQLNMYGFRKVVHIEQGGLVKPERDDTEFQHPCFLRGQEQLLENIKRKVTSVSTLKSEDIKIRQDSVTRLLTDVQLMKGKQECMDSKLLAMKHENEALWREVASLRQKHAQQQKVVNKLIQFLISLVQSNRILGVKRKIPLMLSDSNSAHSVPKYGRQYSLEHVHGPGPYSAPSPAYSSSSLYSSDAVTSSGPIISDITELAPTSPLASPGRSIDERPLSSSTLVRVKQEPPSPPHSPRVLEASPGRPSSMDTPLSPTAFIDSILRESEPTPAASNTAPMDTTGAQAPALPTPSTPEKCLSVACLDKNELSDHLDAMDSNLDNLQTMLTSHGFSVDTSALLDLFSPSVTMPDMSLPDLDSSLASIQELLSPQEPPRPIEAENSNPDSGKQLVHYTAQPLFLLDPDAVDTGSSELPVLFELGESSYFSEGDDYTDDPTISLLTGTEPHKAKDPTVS
The test is described as follows: HSF1 potentiators in luciferase reporter cells, confirmation, cell-based, NIH3T3, luminescence, dose retest (AID 435004).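 Note: stress induced by proteasome inhibitor MG132 added 30 min after compound; luciferase reporter driven by HSF1 response element in NIH3T3 cells; actives raise luminescence as potentiators of the MG132 stress response.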 In kind it is functional.

The nature of test [4]: Shn3 3'UTR reporter inhibitors, dose response, cell-based, Clone20 osteoblasts, firefly luciferase, cherry-picked (AID 624132).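 Note: firefly luciferase luminescence from reporter carrying the Shn3 3'UTR in osteoblasts.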 It is filed as functional.
Test [5] is described as follows: control 3'UTR Renilla luciferase suppression, dose response, counter-screen for Shn3 inhibitor project, cell-based, Clone20-Shn3RL, cherry-picked (AID 624133). It is filed as functional. On the technique in general: The purpose of a counterscreen is to sort out artefacts and off-target activity.
Test [6] can be described thus: Luminescence Cell-Based Dose Confirmation HTS to Identify Inhibitors of Platelet Dense Granule Release. [Related pubchem assays: 1663 (Primary HTS), 1678 (Summary of Project)]. In kind it is functional.
Another test concerns the target T3, Protein RecA (Mycobacterium tuberculosis, UniProt P9WHJ3).
T3 sequence (P9WHJ3 whole entry): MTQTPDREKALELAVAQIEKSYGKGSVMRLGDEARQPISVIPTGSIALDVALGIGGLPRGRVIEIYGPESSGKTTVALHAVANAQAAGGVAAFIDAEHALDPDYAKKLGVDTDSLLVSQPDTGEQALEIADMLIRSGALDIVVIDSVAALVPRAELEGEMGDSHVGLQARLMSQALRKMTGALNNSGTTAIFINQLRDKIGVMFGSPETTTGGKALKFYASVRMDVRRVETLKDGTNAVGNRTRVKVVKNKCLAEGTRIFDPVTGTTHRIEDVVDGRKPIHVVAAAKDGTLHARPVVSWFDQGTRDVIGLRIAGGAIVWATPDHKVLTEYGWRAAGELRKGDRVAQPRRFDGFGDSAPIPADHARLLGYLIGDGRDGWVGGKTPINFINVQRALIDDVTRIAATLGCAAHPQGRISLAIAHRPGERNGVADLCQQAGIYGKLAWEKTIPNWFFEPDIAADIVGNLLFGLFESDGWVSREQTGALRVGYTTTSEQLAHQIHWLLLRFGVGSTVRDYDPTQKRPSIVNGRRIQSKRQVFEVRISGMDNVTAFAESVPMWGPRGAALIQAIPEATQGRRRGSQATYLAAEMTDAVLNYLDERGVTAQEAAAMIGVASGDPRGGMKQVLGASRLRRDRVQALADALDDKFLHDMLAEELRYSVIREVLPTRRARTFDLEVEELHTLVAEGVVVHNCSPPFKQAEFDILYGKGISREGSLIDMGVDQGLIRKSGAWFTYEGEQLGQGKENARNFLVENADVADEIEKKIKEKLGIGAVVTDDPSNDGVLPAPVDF
The test is described as follows: Fluorescence Cell-Free Homogeneous Dose Retest to Identify Inhibitors of RecA-Intein Splicing Activity. [Related pubchem assays (depositor defined):AID2097, AID2223, AID489010, AID492950]. In kind it is functional.

In test [7] the target is T4, Replicative DNA helicase DnaB (Mycobacterium tuberculosis, UniProt P9WMR3).
T4 sequence (P9WMR3 whole entry): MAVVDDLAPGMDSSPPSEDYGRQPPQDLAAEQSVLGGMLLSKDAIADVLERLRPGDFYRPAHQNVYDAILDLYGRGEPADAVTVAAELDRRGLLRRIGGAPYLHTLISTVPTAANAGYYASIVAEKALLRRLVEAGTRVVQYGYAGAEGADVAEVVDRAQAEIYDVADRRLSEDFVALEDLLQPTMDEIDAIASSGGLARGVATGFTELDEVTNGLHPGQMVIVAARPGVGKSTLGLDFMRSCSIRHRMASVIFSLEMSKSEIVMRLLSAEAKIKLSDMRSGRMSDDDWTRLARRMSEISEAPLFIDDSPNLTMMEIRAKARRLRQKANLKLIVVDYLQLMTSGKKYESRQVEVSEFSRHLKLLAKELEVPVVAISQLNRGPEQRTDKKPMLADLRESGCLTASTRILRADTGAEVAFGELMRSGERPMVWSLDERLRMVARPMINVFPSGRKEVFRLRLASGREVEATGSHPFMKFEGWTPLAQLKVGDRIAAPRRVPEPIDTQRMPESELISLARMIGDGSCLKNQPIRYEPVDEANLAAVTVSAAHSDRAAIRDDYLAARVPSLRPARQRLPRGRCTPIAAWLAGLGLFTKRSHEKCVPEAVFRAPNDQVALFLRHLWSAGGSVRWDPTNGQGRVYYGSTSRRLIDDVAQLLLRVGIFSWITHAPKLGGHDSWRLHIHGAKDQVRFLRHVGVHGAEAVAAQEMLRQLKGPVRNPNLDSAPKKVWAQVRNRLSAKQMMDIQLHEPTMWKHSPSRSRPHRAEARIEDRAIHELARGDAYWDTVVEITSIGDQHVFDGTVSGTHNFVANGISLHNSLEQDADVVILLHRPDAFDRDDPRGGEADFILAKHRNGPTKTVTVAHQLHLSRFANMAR
The test is described as follows: DnaB intein splicing inhibitors, dose response, biochemical, cell-free fluorescence (AID 449749). It is filed as functional.

Test [8] has as its target Luciferin 4-monooxygenase (Photinus pyralis, UniProt P08659). The test is described as follows: firefly luciferase enzyme inhibitors, dose response, biochemical, luminescence (AID 1891).
The nature of test [9]: Luminescence Cell-Based Dose Retest to Confirm Inhibitors of Cancer Stem Cells. [Related pubchem assays (depositor defined):AID2717, AID2721]. In kind it is functional. Particulars: Homo sapiens.
Test [10] can be described thus: microbe, parasite or virus in culture. In kind it is functional. To be noted: Mycobacterium tuberculosis.
Test [11] has as its target T2, Heat shock factor protein 1. The test is described as follows: inhibition of MG132-induced HSE-luciferase signal, confirmation, cell-based, NIH3T3, luminescence, dose retest (AID 2382).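 Note: NIH3T3 fibroblasts with HSF1-driven luciferase reporter stressed by proteasome inhibitor MG132; luminescence from HSF1-driven luciferase expression after 8 hours of MG132 stress.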 It is filed as functional.
The subject of another test is H9c2. The test is described as follows: cells. To be noted: Rattus norvegicus, H9c2, Myocardium. It is filed as functional, cell-based.

Activity calls are given as the source filed them.

T1 sequence (P11940 whole entry): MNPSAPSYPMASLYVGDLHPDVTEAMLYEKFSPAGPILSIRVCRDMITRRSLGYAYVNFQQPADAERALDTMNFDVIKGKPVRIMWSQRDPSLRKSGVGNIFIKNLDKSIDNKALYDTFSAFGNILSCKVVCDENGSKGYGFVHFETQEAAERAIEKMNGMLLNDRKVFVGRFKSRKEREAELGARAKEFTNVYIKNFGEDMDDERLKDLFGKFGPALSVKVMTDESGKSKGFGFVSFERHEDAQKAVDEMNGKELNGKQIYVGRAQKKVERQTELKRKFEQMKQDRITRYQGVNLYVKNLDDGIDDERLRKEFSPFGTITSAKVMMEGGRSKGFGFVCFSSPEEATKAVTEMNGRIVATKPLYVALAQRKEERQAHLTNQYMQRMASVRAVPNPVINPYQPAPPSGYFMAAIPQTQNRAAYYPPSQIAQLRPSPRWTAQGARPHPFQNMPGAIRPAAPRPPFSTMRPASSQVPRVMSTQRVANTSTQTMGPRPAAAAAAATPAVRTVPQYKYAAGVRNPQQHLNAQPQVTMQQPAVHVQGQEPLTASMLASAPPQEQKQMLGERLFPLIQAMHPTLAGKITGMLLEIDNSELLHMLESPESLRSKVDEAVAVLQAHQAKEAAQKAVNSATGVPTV
Sequence of Luciferin 4-monooxygenase (P08659 whole entry): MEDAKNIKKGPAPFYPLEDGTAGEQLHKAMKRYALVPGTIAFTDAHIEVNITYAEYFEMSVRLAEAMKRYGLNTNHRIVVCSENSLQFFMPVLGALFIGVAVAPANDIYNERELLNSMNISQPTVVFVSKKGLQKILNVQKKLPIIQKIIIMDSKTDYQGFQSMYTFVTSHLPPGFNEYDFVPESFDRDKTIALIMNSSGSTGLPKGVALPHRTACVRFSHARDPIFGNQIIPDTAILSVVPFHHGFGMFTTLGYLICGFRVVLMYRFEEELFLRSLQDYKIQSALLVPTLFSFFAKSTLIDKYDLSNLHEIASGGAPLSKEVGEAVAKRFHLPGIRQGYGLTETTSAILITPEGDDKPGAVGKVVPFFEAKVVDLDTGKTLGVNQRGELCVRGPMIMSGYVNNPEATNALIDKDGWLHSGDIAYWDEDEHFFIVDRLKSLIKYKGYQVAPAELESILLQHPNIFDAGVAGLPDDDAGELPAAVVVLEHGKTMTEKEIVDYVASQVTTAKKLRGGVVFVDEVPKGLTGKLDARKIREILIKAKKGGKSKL

In the case of `CCOC1=C2CN(S(=O)(=O)c3ccc(C)cc3)[C@@H](c3ccccc3)C[C@H]2[C@H]2C(=O)N(c3ccccc3)C(=O)[C@H]2C1`, the results for the IC50 in test [1] and in test [2] were > 66 µM (inactive) and 51 µM (inactive), respectively.

For the compound `Cc1ccnc(SC2CC(=O)N(c3ccc([N+](=O)[O-])cc3)C2=O)n1` (stereo not drawn), the IC50 in test [1] and in test [2] was > 66 µM (inactive) in each case.

By EC50 is commonly meant the concentration that produces a half-maximal response. For the compound `Cn1c(SCC(=O)NNC(=O)Nc2ccc(Cl)cc2)nnc1-c1ccccc1`, the EC50 in [3] is > 260 µM (inactive).

Broadly, the AC50 is the concentration giving half of the maximal activity seen. As for `Cc1ccc2cc(CN(CC3CCCO3)C(=O)NC3CCCCC3)c(O)nc2c1C` (stereo not drawn), the AC50 in test [4] is 4.49 µM (active); in test [5], 9.37 µM (active).

Regarding `O=C(CCl)Nc1ccccc1C(=O)Nc1ccc2c(c1)OCO2`, the EC50 was 27.7 µM (active) in [6], 13 µM (active) on Protein RecA and > 112 µM (not active) in test [8]. Besides, the AC50 in test [7] was 64.8 µM (active).

As to `COc1ccc(NC(=O)CC2Sc3ncnn3C2=O)cc1` (stereo not drawn), the IC50 in [1] and in test [2] was > 66 µM (inactive) throughout.

Regarding `Cc1cccc(C)c1NC(=O)CN(C)C(=O)c1cc(S(=O)(=O)N(C)C)ccc1N1CCCC1`, in [4], the AC50 was 27.1 µM (active).

As for `Cc1ccc(/C=C/C(=O)N2CC(C)CC(C)C2)o1` (stereo not drawn), the AC50 in test [9] is 22.8 µM (active). The EC50 in test [3] was 24.5 µM (active). In [10], the CC50 was > 40 µM (active).

Take `Cc1ccccc1-n1c(=O)cc(N2CCc3ccccc32)[nH]c1=O`: in test [11], the EC50 is > 195 µM (not active).

With `CCN1C(NCCc2cccs2)=N[C@@H](c2cccs2)C(C(=O)OC)=C1C`, the EC50 in test [11] is reported as > 195 µM (not active).

For `Cc1ccc(CN(C)C(=O)C2CCC(=O)N(CCc3ccccc3)C2)o1` (stereo not drawn), the EC50 in [3] was > 260 µM (inactive).

Turning to `CCOc1ccccc1N(C(=O)c1snc(C(N)=O)c1N)C(C(=O)NC1CCCC1)c1cccs1` (stereo not drawn), the IC50 in test [1] and in test [2] was > 66 µM (inactive) in each case.

Turning to `COc1cc(NC(=O)c2cc3ccccc3cc2OC)ccc1NC(=O)c1cccs1`, the EC50 in [11] is 14.1 µM (active). Besides, the IC50 in the test on H9c2 was > 79 µM (inactive).

In the case of `CN(Cc1ccc2c(c1)CCCN2C)C(=O)[C@H]1O[C@@H](n2ccc(=O)[nH]c2=O)[C@H](O)[C@@H]1O`, the IC50 in test [1] and in test [2] was > 66 µM (inactive) in each case.

`CCC(c1nnnn1Cc1ccco1)N(Cc1cc2cc(OC)ccc2nc1O)C1CCCCC1` (stereo not drawn): the results for the EC50 (at Protein RecA; in test [3]) were 40.2 µM (inconclusive) and 10.7 µM (active), respectively. For the same compound, the AC50 in test [7] is > 380 µM (inactive).

With `CCN=C(S)NS(=O)(=O)c1ccc(C)cc1`, the IC50 in test [1] and in test [2] was > 66 µM (inactive) each time.

For the compound `CCOc1ccccc1NC(=O)CCS(=O)(=O)c1cccs1`, the EC50 in test [11] is reported as > 195 µM (not active).

Regarding `COC(=O)c1sccc1NC(=O)Nc1cccc(F)c1`, the EC50 in [6] is 4.6 µM (active); in test [3], 237 µM (active); in [8] it was 0.93 µM (active).

For the compound `COc1ccc(Cn2nnnc2C(c2ccccc2Cl)N2CCC(C(N)=O)CC2)cc1` (stereo not drawn), the EC50 in [11] is reported as > 195 µM (not active).

Consider `CCN(CC)CCCN1C(=O)CSC1c1ccc([N+](=O)[O-])cc1` (stereo not drawn), for which the IC50 in test [1] and in [2] was > 66 µM (inactive) throughout.

As to `CC1=C(C(=O)Nc2ccccc2C)C(c2cccs2)NC(S)=N1` (stereo not drawn), the EC50 in test [11] is > 195 µM (not active).

For the compound `CC1Cc2ccccc2N1C(=O)CSc1ncccc1C(=O)O` (stereo not drawn), in test [11], the EC50 is > 195 µM (not active).

In the case of `CCOc1ccc(CN(C)CC(O)COC(c2ccc(OC)cc2)c2ccc(OC)cc2)cc1` (stereo not drawn), the EC50 in test [3] is > 260 µM (inactive). Also, in [10], the CC50 is 26.6 µM (active).

For `COc1ccc(NC(=O)NNC(=O)c2cc3occc3n2C)c(OC)c1`, the EC50 in test [3] was > 260 µM (inactive).
